Measurements taken from patent US8293774B2, “Optically active (R)-aryloxypropionic acid amides and herbicidal composition comprising same” (Kyung Nong Corporation, priority 2007, dated 2012).

Tests used:
[1] = tested on: ECHOG (Echinoch crus-galli Beauv. var. caudata Kitagawa, barnyard grass); experiment: Weed control test, foliage treatment (Test Example 1, Table 7); type: in vivo; conditions: Echinochloa crus-galli, foliar, 3-leaf stage, read-out: Plant damage (herbicidal activity), visually evaluated, ECHOG; for pest or weed control at 25 g/ha: 0.025 kg/ha; for pest or weed control at 100 g/ha: 0.1 kg/ha; for pest or weed control at 200 g/ha: 0.2 kg/ha
Outline: (§1)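 Each compound was mixed with acetone and emulsifier (1:5:1 by weight), diluted in water, and sprayed over the foliage at 2,000 l/ha, timed to the 3-leaf stage of barnyard grass. Growth conditions were sandy loam in a greenhouse at 20 to 30° C. Damage ratings of 1 to 100% against untreated plants followed at days 10 and 20.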

[2] = tested on: PANDI (Panium dichotomiflorum Michx, fall panicum); experiment: as above; type: in vivo; conditions: Panicum dichotomiflorum, foliar, read-out: Plant damage (herbicidal activity), visually evaluated, PANDI; for pest or weed control at 25 g/ha: 0.025 kg/ha; for pest or weed control at 100 g/ha: 0.1 kg/ha; for pest or weed control at 200 g/ha: 0.2 kg/ha
Outline: as §1

[3] = tested on: SETVIR (Setaria viridis (L.) Beauv, green foxtail); experiment: as above; type: in vivo; conditions: Setaria viridis, foliar, read-out: Plant damage (herbicidal activity), visually evaluated, SETVIR; for pest or weed control at 25 g/ha: 0.025 kg/ha; for pest or weed control at 100 g/ha: 0.1 kg/ha; for pest or weed control at 200 g/ha: 0.2 kg/ha
Outline: as §1

[4] = tested on: DIGSA (Digitaria Sanguinalis (L.) SCOP, large crabgrass); experiment: as above; type: in vivo; conditions: Digitaria sanguinalis, foliar, read-out: Plant damage (herbicidal activity), visually evaluated, DIGSA; for pest or weed control at 25 g/ha: 0.025 kg/ha; for pest or weed control at 100 g/ha: 0.1 kg/ha; for pest or weed control at 200 g/ha: 0.2 kg/ha
Outline: as §1

[5] = tested on: ARTHIS (Arthraxon hispidus (Thunb.) Makino, creek grass); experiment: as above; type: in vivo; conditions: Arthraxon hispidus, foliar, read-out: Plant damage (herbicidal activity), visually evaluated, ARTHIS; for pest or weed control at 25 g/ha: 0.025 kg/ha; for pest or weed control at 100 g/ha: 0.1 kg/ha; for pest or weed control at 200 g/ha: 0.2 kg/ha
Outline: as §1

[6] = tested on: ZEAMX (Zea mays L., corn); experiment: as above; type: in vivo; conditions: Zea mays, foliar, read-out: Plant damage (herbicidal activity), visually evaluated, ZEAMX; for plant injury at 25 g/ha: 0.025 kg/ha; for plant injury at 100 g/ha: 0.1 kg/ha; for plant injury at 200 g/ha: 0.2 kg/ha
Outline: as §1

[7] = tested on: SORBI (Andropogon sorghum, common sorgum); experiment: as above; type: in vivo; conditions: Sorghum bicolor, foliar, read-out: Plant damage (herbicidal activity), visually evaluated, SORBI; for pest or weed control at 25 g/ha: 0.025 kg/ha; for pest or weed control at 100 g/ha: 0.1 kg/ha; for pest or weed control at 200 g/ha: 0.2 kg/ha
Outline: as §1

[8] = tested on: GLXMA (Glycine max(L.) MERR, soy bean); experiment: as above; conditions: in vivo
[9] = tested on: TRZAW (Tritium aestivum L., wheat); experiment: as above; conditions: in vivo
[10] = tested on: ORYSA (Oryza sativa cv. Dongjin, rice); experiment: as above; conditions: in vivo
[11] = tested on: Rice; experiment: Weed control test, 4-leaf stage plants (Test Example 1, Table 8); conditions: in vivo
Procedure: (§2) Seeds of rice, wheat, soy bean, barley, corn, common sorgum, barnyard grass, large crabgrass, creek grass, green foxtail and fall panicum were placed in sandy loam in 600 cm^2 pots and covered with soil. After keeping the pots in a greenhouse at 20 to 30° C. allowing growth of the plants to the 3-leaf stage of the barnyard grass, 2,000 l/ha of an emulsion obtained by diluting with water a mixture of 1 part by weight of a test compound, 5 parts by weight of acetone and 1 part by weight of an emulsifying agent (Tween 80, Junsei) was applied to the surface of the foliage of the plants. The plant damage at 10 days and 20 days after the foliage treatment was visually evaluated from the level of 1 to 100% by comparison with the untreated control: […]

[12] = tested on: Barnyard grass; experiment: as above; type: in vivo, Echinoch crus-galli Beauv. var. caudata Kitagawa
From the text: as §2, with “[…],” for “After keeping the pots in a greenhouse at 20 to 30° C. allowing growth of the plants to the 3-leaf stage of the barnyard grass,”

[13] = tested on: HORVU (Hordeum vulgare L., barley); experiment: Weed control test, foliage treatment (Test Example 1, Table 7); conditions: in vivo

C[C@@H](Oc1ccc(Oc2nc3ccc(Cl)cc3o2)cc1)C(=O)N(C)c1nc2ccccc2s1 [Example 6, (R)-2-[4-(6-chloro-2-benzoxazolyloxy)phenoxy]propionic acid-N-(2-benzothiazolyl)-N-methyl amide]
pest or weed control at 25 g/ha [1]: 0%
pest or weed control at 100 g/ha [1]: 20%
pest or weed control at 200 g/ha [1]: 70%
pest or weed control at 25 g/ha [2]: 0%
pest or weed control at 100 g/ha [2]: 20%
pest or weed control at 200 g/ha [2]: 70%
pest or weed control at 25 g/ha [3]: 0%
pest or weed control at 100 g/ha [3]: 20%
pest or weed control at 200 g/ha [3]: 50%
pest or weed control at 25 g/ha [4]: 0%
pest or weed control at 100 g/ha [4]: 20%
pest or weed control at 200 g/ha [4]: 70%
pest or weed control at 25 g/ha [5]: 0%
pest or weed control at 100 g/ha [5]: 20%
pest or weed control at 200 g/ha [5]: 50%
plant injury at 25 g/ha [6]: 0%
plant injury at 100 g/ha [6]: 10%
plant injury at 200 g/ha [6]: 90%
pest or weed control at 25 g/ha [7]: 10%
pest or weed control at 100 g/ha [7]: 50%
pest or weed control at 200 g/ha [7]: 90%
Plant damage (herbicidal activity), visually evaluated, GLXMA [8]: 0%
Plant damage (herbicidal activity), visually evaluated, TRZAW [9]: 0%
Plant damage (herbicidal activity), visually evaluated, ORYSA [10]: 0%
Plant damage (herbicidal activity), visually evaluated, Rice [11]: 0%
Plant damage (herbicidal activity), visually evaluated, Barnyard grass ([12]; 0.025 kg/ha): 0%
Plant damage (herbicidal activity), visually evaluated, Barnyard grass ([12]; 0.05 kg/ha): 0%
Plant damage (herbicidal activity), visually evaluated, Barnyard grass ([12]; 0.1 kg/ha): 10%
Plant damage (herbicidal activity), visually evaluated, Barnyard grass ([12]; 0.4 kg/ha): 30%

C[C@@H](Oc1ccc(C(F)=C(c2ccccc2)C(F)(F)F)cc1)C(=O)Nc1ccccc1F [Example 42, (R)-2-[4-(1,3,3,3-tetrafluoro-2-phenylprop-1-enyl)phenoxy]propionic acid-N-(2-fluorophenyl)amide]
pest or weed control at 25 g/ha [1]: 0%
pest or weed control at 100 g/ha [1]: 20%
pest or weed control at 200 g/ha [1]: 20%
pest or weed control at 25 g/ha [2]: 0%
pest or weed control at 100 g/ha [2]: 0%
pest or weed control at 200 g/ha [2]: 70%
pest or weed control at 25 g/ha [3]: 0%
pest or weed control at 100 g/ha [3]: 0%
pest or weed control at 200 g/ha [3]: 70%
pest or weed control at 25 g/ha [4]: 0%
pest or weed control at 100 g/ha [4]: 0%
pest or weed control at 200 g/ha [4]: 20%
pest or weed control at 25 g/ha [5]: 0%
pest or weed control at 100 g/ha [5]: 0%
pest or weed control at 200 g/ha [5]: 50%
plant injury at 25 g/ha [6]: 0%
plant injury at 100 g/ha [6]: 30%
plant injury at 200 g/ha [6]: 90%
pest or weed control at 25 g/ha [7]: 0%
pest or weed control at 100 g/ha [7]: 0%
pest or weed control at 200 g/ha [7]: 0%
Plant damage (herbicidal activity), visually evaluated, GLXMA [8]: 0%
Plant damage (herbicidal activity), visually evaluated, HORVU [13]: 0%
Plant damage (herbicidal activity), visually evaluated, TRZAW [9]: 0%
Plant damage (herbicidal activity), visually evaluated, ORYSA [10]: 0%

C[C@@H](Oc1ccc(C(F)=C(c2ccccc2)C(F)(F)F)cc1)C(=O)Nc1nc2cc(Cl)ccc2o1 [Example 55, (R)-2-[4-(1,3,3,3-tetrafluoro-2-phenylprop-1-enyl)phenoxy]propionic acid-N-(5-chloro-2-benzoxazolyl)amide]
pest or weed control at 25 g/ha [1]: 0%
pest or weed control at 100 g/ha [1]: 0%
pest or weed control at 200 g/ha [1]: 0%
pest or weed control at 25 g/ha [2]: 0%
pest or weed control at 100 g/ha [2]: 0%
pest or weed control at 200 g/ha [2]: 0%
pest or weed control at 25 g/ha [3]: 0%
pest or weed control at 100 g/ha [3]: 0%
pest or weed control at 200 g/ha [3]: 0%
pest or weed control at 25 g/ha [4]: 0%
pest or weed control at 100 g/ha [4]: 0%
pest or weed control at 200 g/ha [4]: 0%
pest or weed control at 25 g/ha [5]: 0%
pest or weed control at 100 g/ha [5]: 0%
pest or weed control at 200 g/ha [5]: 0%
plant injury at 25 g/ha [6]: 10%
plant injury at 100 g/ha [6]: 10%
plant injury at 200 g/ha [6]: 30%
pest or weed control at 25 g/ha [7]: 10%
pest or weed control at 100 g/ha [7]: 20%
pest or weed control at 200 g/ha [7]: 35%
Plant damage (herbicidal activity), visually evaluated, GLXMA [8]: 0%
Plant damage (herbicidal activity), visually evaluated, HORVU [13]: 0%
Plant damage (herbicidal activity), visually evaluated, TRZAW [9]: 0%
Plant damage (herbicidal activity), visually evaluated, ORYSA [10]: 0%

C[C@@H](Oc1ccc(OC(F)=Cc2ccc(Cl)cc2)cc1)C(=O)Nc1nc2cc(Cl)ccc2o1 [Example 56, (R)-2-[4-(1-fluoro-2-(4-chlorophenyl)vinyloxy)phenoxy]propionic acid-N-(5-chloro-2-benzoxazolyl)amide]
pest or weed control at 25 g/ha [1]: 20%
pest or weed control at 100 g/ha [1]: 70%
pest or weed control at 200 g/ha [1]: 90%
pest or weed control at 25 g/ha [2]: 0%
pest or weed control at 100 g/ha [2]: 0%
pest or weed control at 200 g/ha [2]: 10%
pest or weed control at 25 g/ha [3]: 0%
pest or weed control at 100 g/ha [3]: 0%
pest or weed control at 200 g/ha [3]: 20%
pest or weed control at 25 g/ha [4]: 0%
pest or weed control at 100 g/ha [4]: 20%
pest or weed control at 200 g/ha [4]: 90%
pest or weed control at 25 g/ha [5]: 0%
pest or weed control at 100 g/ha [5]: 0%
pest or weed control at 200 g/ha [5]: 10%
plant injury at 25 g/ha [6]: 10%
plant injury at 100 g/ha [6]: 90%
plant injury at 200 g/ha [6]: 90%
pest or weed control at 25 g/ha [7]: 0%
pest or weed control at 100 g/ha [7]: 20%
pest or weed control at 200 g/ha [7]: 20%
Plant damage (herbicidal activity), visually evaluated, GLXMA [8]: 0%
Plant damage (herbicidal activity), visually evaluated, HORVU [13]: 0%
Plant damage (herbicidal activity), visually evaluated, TRZAW [9]: 0%
Plant damage (herbicidal activity), visually evaluated, ORYSA [10]: 0%
